In patent publication US11660293B2, “Substituted 2-azabicyclo[3.1.1]heptane and 2-azabicyclo[3.2.1]octane derivatives as orexin receptor antagonists” (Chronos Therapeutics Limited, priority 2017, dated 2023):

Experiments:
[1] = Measurement of brain fraction unbound (equilibrium dialysis); assay type: in vitro ADME; conditions: pH 7.4, rat brain homogenate, 37° C., read-out: FU brain (%, rat)
Experimental: Measurement of Brain Fraction Unbound (Equilibrium Dialysis)
Brain fractions unbound were determined using equilibrium dialysis in a 96-well format as described in Kalvass and Maurer, 2002. Brain homogenates were prepared using 2 ml/g CSF surrogate (7.30 g/l NaCl, 186.4 mg/l KCl, 239.9 mg/l MgCl2, 185.2 mg/l CaCl2), and 536.0 mg/l Na2HPO4.7H2O, pH 7.4). Dialysis membranes (12-14-kDA cutoff) obtained from Spectrum Laboratories Inc. (Rancho Dominguez, Calif.) were conditioned in water (HPLC grade) for 60 min, followed by 20 min in 20% ethanol, and 15 min in CSF surrogate.
Assay compound concentrations were 5 μM. Diluted brain homogenate was spiked with the compound of interest, and 150-μl aliquots were loaded into the 96-well equilibrium dialysis apparatus and dialyzed against an equal volume of CSF surrogate. Equilibrium was achieved by incubating the 96-well equilibrium dialysis apparatus in a temperature-controlled incubator at 37° C. for 5 h, using an orbital shaker at 125 rpm. At the end of the incubation period, 50-μl aliquots of brain homogenate and buffer were transferred to a 96-well plate, and the composition in each tube was balanced with control fluid to equalize the brain and buffer volumes. Sample extraction was performed by addition of 400 μl of acetonitrile containing internal standard (rolipram). The samples were then vortex-mixed and centrifuged, and 100 μl of supernatants was transferred into a 96-well plate, diluted with 200 μl of 16% acetonitrile/water, and analyzed by liquid chromatography-tandem mass spectrometry (LC-MS/MS).
The brain unbound fraction (FU brain) was calculated from the ratio of analyte/internal standard peak area ratios determined in buffer versus brain homogenate samples using equation (1), which accounts for the effect of tissue dilution on unbound fraction (Kalvass and Maurer, 2002):
[formula] where D is the dilution factor in brain homogenate and fu-diluted is the measured free fraction of diluted brain tissue. Results

[2] = molecular target: T1, human Orexin type 1 receptors (Homo sapiens (Human), UniProt O43613); test: Scintillation Proximity Assay (SPA) binding assay, [3H]SB-674042 displacement, CHO-hOX1 membranes
[3] = molecular target: T2, human Orexin type 2 receptors (Homo sapiens (Human), UniProt O43614); test: Scintillation Proximity Assay (SPA) binding assay, [3H]EMPA displacement, HEK-hOX2 membranes
[4] = molecular target: T1, human Orexin type 1 receptors; test: Intracellular calcium measurement (FLIPR), antagonism of Orexin-A at EC80 in CHO-hOX1 cells
[5] = molecular target: T2, human Orexin type 2 receptors; test: Intracellular calcium measurement (FLIPR), antagonism of Orexin-A at EC80 in CHO-hOX2 cells

T2 sequence (O43614 whole entry): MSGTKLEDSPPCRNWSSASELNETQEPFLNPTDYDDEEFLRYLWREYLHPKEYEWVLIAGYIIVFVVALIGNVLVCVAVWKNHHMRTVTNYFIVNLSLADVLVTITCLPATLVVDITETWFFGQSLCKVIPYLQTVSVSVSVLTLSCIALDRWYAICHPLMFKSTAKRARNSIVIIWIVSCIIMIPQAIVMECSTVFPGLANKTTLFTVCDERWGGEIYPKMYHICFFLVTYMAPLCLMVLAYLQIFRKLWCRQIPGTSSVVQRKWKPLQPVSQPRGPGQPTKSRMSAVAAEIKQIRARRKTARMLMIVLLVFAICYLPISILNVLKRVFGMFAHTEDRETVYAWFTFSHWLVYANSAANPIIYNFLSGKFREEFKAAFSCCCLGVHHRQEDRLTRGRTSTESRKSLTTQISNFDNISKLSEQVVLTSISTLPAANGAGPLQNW
T1 sequence (O43613 whole entry): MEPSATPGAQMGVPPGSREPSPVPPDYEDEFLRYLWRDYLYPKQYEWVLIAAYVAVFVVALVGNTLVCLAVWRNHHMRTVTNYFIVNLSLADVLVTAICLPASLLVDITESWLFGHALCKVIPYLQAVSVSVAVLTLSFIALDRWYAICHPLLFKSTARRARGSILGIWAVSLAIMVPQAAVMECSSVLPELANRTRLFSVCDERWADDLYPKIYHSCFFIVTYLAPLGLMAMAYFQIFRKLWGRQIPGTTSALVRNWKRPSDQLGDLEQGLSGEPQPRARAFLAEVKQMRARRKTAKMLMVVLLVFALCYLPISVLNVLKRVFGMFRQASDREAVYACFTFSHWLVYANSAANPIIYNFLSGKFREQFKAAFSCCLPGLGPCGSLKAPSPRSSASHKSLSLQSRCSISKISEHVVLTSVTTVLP

## C[C@@H]1C2CC(C2)N(C(=O)c2cc(C#N)ccc2-n2nccn2)C1CNc1nc2cccnc2s1 (single isomer, unassigned) [Example 233, 3-[(3R,4S) or (3S,4R)-4-methyl-3-[({[1,3]thiazolo[5,4-b]pyridin-2-yl}amino)methyl]-2-azabicyclo[3.1.1]heptane-2-carbonyl]-4-(2H-1,2,3-triazol-2-yl)benzonitrile]
[1]
  fraction unbound at 5 h, 5 μM: 0.066
[2]; Table 2, [3H]SB-674042 2 nM
  OX1 pKi (SPA binding): 8.41
[3]; Table 2, [3H]EMPA 2 nM
  OX2 pKi (SPA binding): 5.11

## Cc1nc(C(=O)N2C(COc3ccc(F)cc3)CC3CC2C3)c(-c2ccccc2)s1 (racemic) [Example 1]
[4]
  Ki: 6.31 nM
[2]; Table 1, [3H]SB-674042 2 nM
  OX1 pKi (SPA binding): 8.14
[5]
  Ki: 295 nM
[3]; Table 1, [3H]EMPA 2 nM
  OX2 pKi (SPA binding): 6.97

## Cc1ccc(-c2nccs2)c(C(=O)N2C(COc3ccc(F)cc3)CC3CC2C3)n1 (single isomer, unassigned) [Example 6, (3S or 3R) 3-(4-fluorophenoxymethyl)-2-{[6-methyl-3-(1,3-thiazol-2-yl)pyridin-2-yl]carbonyl}-2-azabicyclo[3.1.1]heptane]
[4]
  Ki: 5.13 nM
[5]
  Ki: 93.3 nM

## Cc1ccc(-n2nccn2)c(C(=O)N2C(COc3ccc(F)cc3)CC3CC2C3)c1 (racemic) [Example 10]
[4]
  Ki: 14.8 nM
[5]
  Ki: 347 nM

## Cc1ccc(-c2nccs2)c(C(=O)N2C(COc3ccc(F)cc3)CC3CC2C3)c1 (single isomer, unassigned) [Example 9, (3S or 3R) 3-(4-fluorophenoxymethyl)-2-{[5-methyl-2-(1,3-thiazol-2-yl)phenyl]carbonyl}-2-azabicyclo[3.1.1]heptane]
[4]
  Ki: 3.98 nM
[5]
  Ki: 79.4 nM

## Cc1ccc(-c2ncccn2)c(C(=O)N2C(COc3ccc(F)cn3)CC3CC2C3)n1 (single isomer, unassigned) [Example 22, (3S or 3R) 3-{[(5-fluoropyridin-2-yl)oxy]methyl}-2-{[6-methyl-3-(pyrimidin-2-yl)pyridin-2-yl]carbonyl}-2-azabicyclo[3.1.1]heptane]
[4]
  Ki: 34.7 nM
[5]
  Ki: 174 nM

## Cc1ccc(-c2ncccn2)c(C(=O)N2C3CC(C3)[C@@H](C)C2COc2ccc(F)cn2)c1 (some centres unmarked) [Example 74]
[4]
  Ki: 28.8 nM
[5]
  Ki: 589 nM

## Cc1nc(C(=O)N2C3CC(C3)[C@H](C)[C@@H]2COc2ccc(F)cc2)c(-c2ccccc2)s1 (single isomer, unassigned) [Example 68, (3S,4R or 3R,4S) 3-(4-fluorophenoxymethyl)-4-methyl-2-(2-methyl-5-phenyl-1,3-thiazole-4-carbonyl)-2-azabicyclo[3.1.1]heptane]
[4]
  Ki: 0.741 nM
[5]
  Ki: 138 nM

## Cc1ccc(-c2ncccn2)c(C(=O)N2C3CC(C3)[C@@H](C)[C@@H]2COc2ccc(F)cn2)n1 (single isomer, unassigned) [Example 82, (3S,4S or 3R,4R) 3-{[(5-fluoropyridin-2-yl)oxy]methyl}-4-methyl-2-[6-methyl-3-(pyrimidin-2-yl)pyridin-2-carbonyl]-2-azabicyclo[3.1.1]heptane]
[4]
  Ki: 10 nM
[5]
  Ki: 2240 nM

## Cc1ccc(-c2ncccn2)c(C(=O)N2C3CC(C3)[C@H](C)[C@@H]2COc2ccc(F)cn2)n1 (single isomer, unassigned) [Example 81, (3S,4R or 3R,4S) 3-{[(5-fluoropyridin-2-yl)oxy]methyl}-4-methyl-2-[6-methyl-3-(pyrimidin-2-yl)pyridine-2-carbonyl]-2-azabicyclo[3.1.1]heptane]
[4]
  Ki: 9.77 nM
[5]
  Ki: 58.9 nM

## Cc1ccc(-c2ncccn2)c(C(=O)N2C3CC(C3)C(C)C2COc2ccc(F)cn2)n1 (mixture of isomers) [Example 78, CIS/TRANS 3-{[(5-fluoropyridin-2-yl)oxy]methyl}-4-methyl-2-[6-methyl-3-(pyrimidin-2-yl)pyridine-2-carbonyl]-2-azabicyclo[3.1.1]heptane]
[4]
  Ki: 35.5 nM
[5]
  Ki: 234 nM

## Cc1ccc(-c2ncccn2)c(C(=O)N2C(COc3ccc(C(F)(F)F)cn3)CC3CC2C3)c1 (single isomer, unassigned) [Example 36, (3S or 3R) 2-{[5-methyl-2-(pyrimidin-2-yl)phenyl]carbonyl}-3-({[5-(trifluoromethyl)pyridin-2-yl]oxy}methyl)-2-azabicyclo[3.1.1]heptane]
[4]
  Ki: 67.6 nM
[5]
  Ki: 200 nM

## Cc1ccc(-c2ncccn2)c(C(=O)N2C(COc3ccc(F)cc3)CC3CC2C3)n1 (single isomer, unassigned) [Example 15, (3S or 3R) 3-(4-fluorophenoxymethyl)-2-{[6-methyl-3-(pyrimidin-2-yl)pyridin-2-yl]carbonyl}-2-azabicyclo[3.1.1]heptane]
[4]
  Ki: 4.07 nM
[5]
  Ki: 52.5 nM

## Cc1nc(C(=O)N2C3CC(C3)C(C)C2COc2ccc(F)cn2)c(-c2ccccc2)s1 (mixture of isomers) [Example 77, CIS/TRANS 3-{[(5-fluoropyridin-2-yl)oxy]methyl}-4-methyl-2-(2-methyl-5-phenyl-1,3-thiazole-4-carbonyl)-2-azabicyclo[3.1.1]heptane]
[4]
  Ki: 21.9 nM
[5]
  Ki: > 1000 nM

## Cc1nc(C(=O)N2C3CC(C3)C(C)C2COc2ccc(F)cc2)c(-c2ccccc2)s1 (mixture of isomers) [Example 64, CIS/TRANS 3-(4-fluorophenoxymethyl)-4-methyl-2-(2-methyl-5-phenyl-1,3-thiazole-4-carbonyl)-2-azabicyclo[3.1.1]heptane]
[4]
  Ki: 3.16 nM
[5]
  Ki: 282 nM

## Cc1ccc(-c2ncccn2)c(C(=O)N2C(COc3ccc(F)cc3)CC3CC2C3)c1 (racemic) [Example 16]
[4]
  Ki: 28.8 nM
[5]
  Ki: 537 nM

## Cc1nc(C(=O)N2C3CC(C3)[C@@H](C)[C@@H]2COc2ccc(F)cc2)c(-c2ccccc2)s1 (single isomer, unassigned) [Example 67, (3S,4S or 3R,4R) 3-(4-fluorophenoxymethyl)-4-methyl-2-(2-methyl-5-phenyl-1,3-thiazole-4-carbonyl)-2-azabicyclo[3.1.1]heptane]
[4]
  Ki: 1.38 nM
[5]
  Ki: 562 nM

## Cc1ccc(-c2ncccn2)c(C(=O)N2C(COc3ccc(Cl)cn3)CC3CC2C3)c1 (single isomer, unassigned) [Example 33, (3S or 3R) 3-{[(5-chloropyridin-2-yl)oxy]methyl}-2-{[5-methyl-2-(pyrimidin-2-yl)phenyl]carbonyl}-2-azabicyclo[3.1.1]heptane]
[4]
  Ki: 24 nM
[5]
  Ki: 110 nM

## Cc1ccc(-c2ncccn2)c(C(=O)N2C(CCOc3ccc(F)cc3)CC3CC2C3)c1 (racemic) [Example 41]
[4]
  Ki: 22.4 nM
[5]
  Ki: 224 nM

## Cc1ccc(-c2ncccn2)c(C(=O)N2C3CC(C3)[C@@H](C)[C@H]2COc2ccc(F)cc2)c1 (single isomer, unassigned) [Example 71, (3S,4R or 3R,4S) 3-(4-fluorophenoxymethyl)-4-methyl-2-[5-methyl-2-(pyrimidin-2-yl)benzoyl]-2-azabicyclo[3.1.1]heptane]
[4]
  Ki: 3.39 nM
[5]
  Ki: 89.1 nM

## Cc1ccc(-c2nccs2)c(C(=O)N2C(COc3ccc(F)cn3)CC3CC2C3)n1 (centres unmarked) [Example 31]
[4]
  Ki: 97.7 nM
[5]
  Ki: 776 nM

## Cc1ccc(-c2nccs2)c(C(=O)N2C(COc3ccc(F)cn3)CC3CC2C3)c1 (racemic) [Example 25]
[4]
  Ki: 30.2 nM
[5]
  Ki: 209 nM

## Cc1nc(C(=O)N2C(COc3ccc(F)cc3)CC3CC2C3)c(-c2ccccc2)s1 (single isomer, unassigned) [Example 3, (3S or 3R) 3-[(4-fluorophenoxy)methyl]-2-(2-methyl-5-phenyl-1,3-thiazole-4-carbonyl)-2-azabicyclo[3.1.1]heptane]
[4]
  Ki: 2.34 nM
[5]
  Ki: 81.3 nM

## Cc1ccc(-c2ncccn2)c(C(=O)N2C3CC(C3)[C@H](C)[C@H]2COc2ccc(F)cc2)c1 (single isomer, unassigned) [Example 70, (3S,4S or 3R,4R) 3-(4-fluorophenoxymethyl)-4-methyl-2-[5-methyl-2-(pyrimidin-2-yl)benzoyl]-2-azabicyclo[3.1.1]heptane]
[4]
  Ki: 13.5 nM
[5]
  Ki: 2450 nM

## Cc1ccc(-c2ncccn2)c(C(=O)N2C(COc3ccc(C(F)(F)F)cn3)CC3CC2C3)c1 (racemic) [Example 35]
[4]
  Ki: 74.1 nM
[5]
  Ki: 631 nM
